From patent US11413278B2, “Compounds and methods for promoting stress resistance” (priority 2015, dated 2022)

Columns and labels:
LC3A/B puncta = test: Autophagy induction analysis (LC3A/B puncta immuno-staining); type: cell-based, human; settings: for Assay 15: Potential autophagy induction by LC3A/B puncta assays: 10 uM & 20 uM, YES/NO; for Exp. 1, induction of LC3A/B puncta (Up), total intensity normalized by total number of nuclei in the fields / Exp. 1, normalized change of nuclei numbers (Less cells): Exp. 1, 10 μM, 10X objective; for Exp. 1, induction of LC3A/B puncta (Up), total intensity normalized by total number of nuclei in the fields / Exp. 1, normalized change of nuclei numbers (Less cells) / Exp. 2, normalized change of nuclei numbers (Less cells): WI-38 cells; for Exp. 2, normalized change of nuclei numbers (Less cells): 20X objective, lysosomal LAMP co-staining
Description: Immuno-staining of LC3A/B was performed, following a standard protocol. Briefly, WI-38 cells were treated with small molecules for 24 hrs, and then processed and incubated with primary antibody (Cell Signaling, rabbit anti-LC3A/B, 1:100) overnight at 4° C. Next day, samples were processed and incubated with fluorophore-conjugated secondary antibody and further incubated with DAPI dye. Images were collected on the INCell Analyzer 2000 (Experiment 1: 10× objective; Experiment 2: 20× objective) and analyzed with the Developer Toolbox. For Experiment 2, lysosomal-associated membrane protein 2 (LAMP2) was also counter-stained to identify the LC3A/B puncta that colocalize with lysosome and the data were analyzed by the MetaXpress software (Molecular Devices, version 5.1). The intensity of total (Exp. 1) or LAMP2-colocalized LC3A/B puncta (Exp. 2) was normalized the total numbers nuclei in the fields.
These assays were performed, following the same procedures to analyze DNA-damage markers. WI-38 cells were incubated with small molecules for 24 hrs, and then processed and incubated with primary antibody (rabbit anti-LC3A/B, 1:100) overnight at 4 C. The next day, samples were processed and incubated with fluorophore-conjugated secondary antibody and further incubated with DAPI dye. Images were collected on an INCell Analyzer 2000 and analyzed with the Developer software. Total LC3A/B puncta intensity was normalized the total numbers of DAPI-positive nuclei.

mTOR = mTOR inhibition (RPS6 phosphorylation status), In-Cell Western; type: cell-based, human
Description: In-Cell Western assays were performed, following a standard immuno-staining protocol. Briefly, WI-38 cells were treated with small molecules for 24 hrs, and then processed and incubated with primary antibody cocktail (Cell Signaling, mouse anti-RPS, 1:25; rabbit-anti-pRPS6-(Ser-235/236), 1:100) overnight at 4° C. Next day, samples were processed and incubated with fluorophore-conjugated secondary antibodies (Cell Signaling, DyLight 680-goat anti-mouse, 1:500; DyLight 800-goat anti-rabbit, 1:1,000). Images were collected on an Odyssey Imager (LI-COR) and analyzed with the Image Studio Lite software (version 5.0.21).
Mammalian target of rapamycin (mTOR) is a crucial regulator of cell growth and metabolism and has been implicated in aging and many diseases, including cancer, diabetes and neurological diseases (Dazert and Hall, 2011; Zoncu et al., 2011). […] In addition, the anti-diabetes drug metformin (Kalender et al., 2010), as well as other AMPK activators such as 2-deoxy-D-glucose (Inoki et al., 2003) and AICAR (Shaw et al., 2004), could inhibit mTORC1. Applicants examined the effects of our molecules (at three doses, 5 μM, 10 μM and 20 μM) on the phosphorylation status of ribosomal protein S6 (RPS6), a readout of mTOR activity, to ask whether they could inhibit mTOR.
In-Cell Western assays were performed, following the same procedures to analyze DNA-damage markers. WI-38 cells were incubated with small molecules for 24 hrs, and then processed and incubated with primary antibody cocktail (mouse anti-RPS, 1:25; rabbit-anti-pRPS6, 1:100) overnight at 4° C. Next day, samples were processed and incubated with fluorophore-conjugated secondary antibodies (goat anti-mouse, 1:500; goat anti-rabbit, 1:1,000) in antibody dilution buffer. Images were collected on an Odyssey Imager (LI-COR) and analyzed with the Image Studio Lite software.

[1] = Summary score for characterization of 38 core set hits; settings: for D = Triple resistant: 2-point score, multiplex resistance (cadmium, MMS, H2O2); for S = Sum of Negative scores: human; for C = H2O2- & Cd-resistant: score, resistance to both H2O2 and cadmium
Description: 38 “core set” small molecules are listed and are assigned a score, based on the result for each individual characterization. From our small molecule screen for H2O2-resistance, we isolated 61 top hits. […] Specifically, a 2-point score was assigned to the most well-known and prominent longevity-related phenotypes, such as multiplex resistance, activation of FOXO3 and/or NRF2, and down-regulation of mTOR. Small molecules were also analyzed for their ability to extend C. elegans' lifespan in 4 to 6 independent trials, and the lifespan score scale is from 0 to 2: 0 for no obvious effects, 1 for lifespan extension observed in 2 trials, 2 for observed in more than 2 trials. Certain molecules appeared to have DNA-damaging effects and/or potential cell-toxicity in cultured human cells, and they receive a negative point.

C. elegans = type: in vivo, Caenorhabditis elegans; settings: in vivo
Description: The worms were treated with the small molecules in liquid, with H2O2 (500 μM final concentration) added on day 4 of adulthood, and scored for viability everyday
FUdR was used to block progeny production. The molecules were analyzed in 96-well plates, with 4 wells for each small molecule. Multiple control wells with DMSO (0.2% final concentration) were included. […] Day 1 adults were transferred onto mini-plates, seeded with OP50 bacteria (UV-irradiated, kanamycin-treated) and supplemented with small molecules (˜60 μM final concentration, 0.2% DMSO). Worms were scored every other day. Cumulative survival was analyzed using the STATA software (log-rank test). […] The worms were treated with the small molecules in liquid, with H2O2 (500 μM final concentration) added on day 4 of adulthood, and scored for viability every day.

Compound	Assay 15: Potential autophagy induction by LC3A/B puncta assays (LC3A/B puncta)	Exp. 1, induction of LC3A/B puncta (Up), total intensity normalized by total number of nuclei in the fields (LC3A/B puncta)	Exp. 1, normalized change of nuclei numbers (Less cells) (LC3A/B puncta)	Exp. 2, normalized change of nuclei numbers (Less cells) (LC3A/B puncta; Exp. 2, 10 μM)	Exp. 2, normalized change of nuclei numbers (Less cells) (LC3A/B puncta; Exp. 2, 20 μM)	H = Potential Autophagy Induction (LC3A/B puncta; score)	H = Potential Autophagy Induction (LC3A/B puncta; summary score)	G = mTOR down-regulation (mTOR; 2-point score)	G = mTOR down-regulation (mTOR; summary score)	D = Triple resistant [1]	S = Sum of Negative scores [1]	C = H2O2- & Cd-resistant [1]	H2O2-resistance assay, 1st experiment (C. elegans)	L = H2O2-resistance in worms (C. elegans)	N = H2O2-resistance in woms (C. elegans)
NS(=O)(=O)c1ccc(NC(=O)c2ccc([N+](=O)[O-])o2)cc1 [Gr-1A]	YES	p < 0.001; Up, 1876%,	Less cells, 55%,	Less cells, 66%,	Less cells, 57%,	1	1	0	0	0	1	1	YES;	0	0
O=C(Nc1cc(C(F)(F)F)ccc1Cl)c1ccc([N+](=O)[O-])o1 [Gr-1B]	–	No induction	–	–	–	0	0	0	0	0	0	1	–	0	0
CCc1ccccc1NC(=O)c1ccc([N+](=O)[O-])o1 [Gr-1C]	YES	p < 0.01; Up, 956%,	Less cells, 70%,	Less cells, 58%,	Less cells, 41%,	1	1	0	0	0	1	1	–	0	0
O=C(Nc1cccc(Cl)c1)c1ccc([N+](=O)[O-])o1 [Gr-1D]	YES	p < 0.05; Up, 617%,	Less cells, 67%,	Less cells, 67%,	Less cells, 73%,	1	1	0	0	0	1	1	–	0	0
O=C(Nc1cccc(C(F)(F)F)c1)c1ccc([N+](=O)[O-])o1 [Gr-1E]	–	Up, 260%, p < 0.01	–	Less cells, 75%,	Less cells, 58%,	0	0	0	0	0	0	1	–	0	0
Cc1ccc(NC(=O)c2ccc([N+](=O)[O-])o2)cc1C [Gr-1F]	–	Up, 151%, p < 0.01	–	Less cells, 82%,	Less cells, 73%,	0	0	0	0	0	2	1	–	0	0
